Read-outs that look alike come from different tables or passages of the source. Starred links: 1 amine or outer side, 2 acyl side, 3 side chain; linkers in the order of their positions; H or OH if unused. Non-standard residues stand in square brackets, D forms with d. Residues, ends and D or L forms follow the SMILES beside them. *: point of attachment. Phe(4-CH2SO3H) = N[C@@H](Cc1ccc(CS(=O)(=O)O)cc1)C(=O)O; sY = N[C@@H](Cc1ccc(OS(=O)(=O)O)cc1)C(=O)O; C18 diacid = O=C(O)CCCCCCCCCCCCCCCCC(=O)*; γGlu = O=C(O)[C@H](CCC(=O)[*:2])N[*:1]; βAsp = O=C(O)[C@H](CC(=O)[*:2])N[*:1]; NMeF = CN[C@@H](Cc1ccccc1)C(=O)O; dNMeD = CN[C@H](CC(=O)O)C(=O)O; Nle = CCCC[C@H](N)C(=O)O; AEEA = NCCOCCOCC(=O)O
Key:
[1] = target: T1, human cholecystokinin-2 receptor (CCK-2R) (Homo sapiens, UniProt P32239); assay: In vitro receptor binding to CCK-2R, SPA displacement of [125I]-CCK-8s from plasma membranes
T1 construct: host or cells: 1321-N1 cells (plasma membranes prepared by Evotec AG Hamburg)
T1 sequence (P32239 1-447): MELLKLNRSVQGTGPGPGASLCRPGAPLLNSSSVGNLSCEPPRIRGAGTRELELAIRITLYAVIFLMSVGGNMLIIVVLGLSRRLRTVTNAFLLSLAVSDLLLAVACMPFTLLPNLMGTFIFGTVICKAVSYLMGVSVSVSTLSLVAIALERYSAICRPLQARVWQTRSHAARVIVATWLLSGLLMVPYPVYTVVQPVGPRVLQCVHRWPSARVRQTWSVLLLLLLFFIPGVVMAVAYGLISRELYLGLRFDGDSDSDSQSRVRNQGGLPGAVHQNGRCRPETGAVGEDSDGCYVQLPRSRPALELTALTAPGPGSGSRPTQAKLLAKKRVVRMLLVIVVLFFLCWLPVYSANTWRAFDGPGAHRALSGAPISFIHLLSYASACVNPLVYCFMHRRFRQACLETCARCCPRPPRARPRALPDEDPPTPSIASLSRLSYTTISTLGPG
Experimental: The in vitro binding affinity is a measure of the strength of attraction between a receptor and its ligand.
Displacement of radio ligand was measured as reduction in light emission from SPA beads.
The cells used in these assays were 1321-N1 cells stably expressing the CCK-1R or the CCK-2R (Perkin Elmer product numbers ES-530-A and ES-531-A, respectively see www.perkinelmer.com/Catalog/Product/ID/ES-530-A or -ES-531-A, respectively).
The cells were cultured in an incubator (95% RH (relative humidity), 5% (of standard atmospheric pressure) CO2, 37° C.) in cell culture medium (DMEM (Lonza catalogue BE-12-604F/U1), with 10% (v/v) Foetal Calf Serum (FCS, Gibco catalogue 16140-071), 1% (w/w) Sodium pyruvate (Gibco catalogue 11360-039), 500 μg/ml Geneticin® (G418) (Gibco catalogue 10131-027), 25 μg/ml Zeocin™ (Invitrogen catalogue R250-05), 1% (w/w) Pen/Strep (Gibco catalogue 15140-122)).
Plasma membranes were prepared by Evotec AG Hamburg by use of the ParrBomb (#4635, Parr Instrument Company). Cells were lysed with a lysis buffer (50 mM Tris, 2.5 mM EDTA, pH7) with added protease inhibitors (Complete Proteaseinhibitors EDTA-free (#05056489001, Roche), 1 tablet per 50 mL lysis buffer). The membrane fraction was separated by centrifugation. First, the cell lysate was centrifuged at 1000×g for 10 minutes at 4° C. The pellet was discarded and the supernatant was then centrifuged at 100.000×g for 30 minutes at 4° C. The supernatant was discarded and the pellet was re-suspended in 1 ml/5×10^8 cells ice cold membrane buffer (50 mM Tris, 320 mM Sucrose and Complete Proteaseinhibitors EDTA-free (#05056489001, Roche); pH7.4) and homogenised with dounce homogeniser. The protein concentration was determined using the Pierce™ BCA Protein Assay Kit according to kit manual, and the membrane preparation was adjust to the desired protein concentration with membrane buffer and aliquoted into pre-cooled tubes, snap-frozen in liquid nitrogen, and stored at −80° C.
CCK receptor binding assays were performed in 96-well Optiplates (Cat #6005290, PerkinElmer, Waltham, Mass., USA) in a total volume of 200 μl per well. CCK derivatives in 80% DMSO stock solutions of 800 μM were serially diluted […] in assay buffer (50 mM Tris/HCl, 4.5 mM MgCl2, […], 0.02% Tween 20, 0.25% ovalbumin, 0.1% pluronic F-68, pH 7.4) to final assay concentrations ranging from 10^−5 M (ten μM) to 10^−12 M (one pM).
Fifty μl of reference or test compounds were added to the Optiplates (using technical duplicates, i.e. two wells of each sample, one data point being the average of two wells), followed by addition of 150 μl of the mixture of SPA bead, radio ligand, and plasma membrane. The plates were sealed and incubated in the dark at +22° C. for 2 hours on a IKA MTS plate shaker (IKA-Werke D-79219 Staufen) set at 300 rpm and thereafter centrifuged at 1500 rpm for 10 minutes in a Heraeus Multifuge 3s centrifuge. SPA bead light emission was measured in a TopCount NXT (PerkinElmer) for 2 min/well after a delay of 60 min.
As a measure of compound affinity, calculations were performed in order to determine the half maximal inhibitory concentration (the IC50 value).
The data from the TopCounter were given as counts per minute (CPM). The CPM was plotted as a function of the concentration of compound. Dose-response curves were obtained, and IC50 values were calculated, by a nonlinear three-parameter logistic equation (log(agonist) vs response) with hillslope=−1, and shared top and bottom using the software programme GraphPad Prism v 6.0 (Graph Pad software, La Jolla, Calif., USA). The highest dose tested was 10^−5 M (1×10^7 pM).
The preference of a specific compound for the CCK-1 receptor, or the CCK-1R selectivity, may be defined as IC50 (CCK-2R)/IC50 (CCK-1R).
A minimum of three biological replicates was measured for each test compound on separate assay plates.

[2] = target: T1, human cholecystokinin-2 receptor (CCK-2R); assay: In vitro potency on CCK-2R, whole cell functional assay (IP1 accumulation, IP-One HTRF); format: cell-based
[3] = displacement of [125I]-CCK-8s, plasma membranes of 1321-N1 cells expressing CCK-2R, highest dose tested 1×10^7 pM, read-out: IC50 (CCK-2R)
[4] = 1321-N1 cells stably expressing CCK-2R, IP1 accumulation, highest dose tested 1×10^6 pM, read-out: EC50 (CCK-2R)

SMILES	IC50 [1]	EC50 [2]	IC50 [1, 3]	EC50 [2, 4]
CC(C)C[C@H](NC(=O)[C@H](Cc1ccc(OS(=O)(=O)O)cc1)NC(=O)[C@H](CC(=O)O)NC(=O)COCCOCCNC(=O)COCCOCCNC(=O)CC[C@H](NC(=O)CCCCCCCCCCCCCCCCC(=O)O)C(=O)O)C(=O)NCC(=O)N[C@@H](Cc1c[nH]c2ccccc12)C(=O)N[C@@H](CC(C)C)C(=O)N(C)[C@H](CC(=O)O)C(=O)N(C)[C@@H](Cc1ccccc1)C(N)=O [Example 13, 2-[2-[2-[[2-[2-[2-[[(4S)-4-Carboxy-4-(17-carboxyheptadecanoylamino)butanoyl]amino]ethoxy]ethoxy]acetyl]amino]ethoxy]ethoxy]acetyl-Asp-sTyr-Leu-Gly-Trp-Leu-DMeAsp-MePhe-amide]	0.42 µM	0.079 µM		
CCCC[C@H](NC(=O)[C@H](Cc1c[nH]c2ccccc12)NC(=O)CNC(=O)[C@H](Cc1c[nH]cn1)NC(=O)[C@H](Cc1ccc(OS(=O)(=O)O)cc1)NC(=O)[C@@H](N)CC(=O)O)C(=O)N(C)[C@H](CC(=O)O)C(=O)N(C)[C@@H](Cc1ccccc1)C(N)=O [Example 82, Asp-sTyr-His-Gly-Trp-Nle-DMeAsp-MePhe-amide] (H-D[sY]HGW[Nle][dNMeD][NMeF]-NH2)			> 10 µM	> 1 µM
CCCC[C@H](NC(=O)[C@H](Cc1c[nH]c2ccccc12)NC(=O)CNC(=O)[C@H](CC(C)C)NC(=O)[C@H](Cc1ccc(OS(=O)(=O)O)cc1)NC(=O)[C@H](CC(=O)O)NC(=O)COCCOCCNC(=O)COCCOCCNC(=O)COCCOCCNC(=O)COCCOCCNC(=O)CC[C@H](NC(=O)CCCCCCCCCCCCCCCCC(=O)O)C(=O)O)C(=O)N(C)[C@H](CC(=O)O)C(=O)N(C)[C@@H](Cc1ccccc1)C(N)=O [Example 31, 2-[2-[2-[[2-[2-[2-[[2-[2-[2-[[2-[2-[2-[[(4S)-4-Carboxy-4-(17-carboxyheptadecanoylamino)butanoyl]amino]ethoxy]ethoxy]acetyl]amino]ethoxy]ethoxy]acetyl]amino]ethoxy]ethoxy]acetyl]amino]ethoxy]ethoxy]acetyl-Asp-sTyr-Leu-Gly-Trp-Nle-DMeAsp-MePhe-amide]			0.48 µM	0.11 µM
CC[C@H](C)[C@H](NC(=O)[C@H](Cc1c[nH]c2ccccc12)NC(=O)CNC(=O)[C@H](CC(C)C)NC(=O)[C@H](Cc1ccc(OS(=O)(=O)O)cc1)NC(=O)[C@@H](N)CC(=O)O)C(=O)N(C)[C@H](CC(=O)O)C(=O)N(C)[C@@H](Cc1ccccc1)C(N)=O [Example 61, Asp-sTyr-Leu-Gly-Trp-Ile-DMeAsp-MePhe-amide] (H-D[sY]LGWI[dNMeD][NMeF]-NH2)	6.1 µM	> 1 µM		
CC(C)C[C@H](NC(=O)[C@H](Cc1ccc(OS(=O)(=O)O)cc1)NC(=O)[C@H](CCC(=O)O)NC(=O)COCCOCCNC(=O)COCCOCCNC(=O)CC[C@H](NC(=O)CCCCCCCCCCCCCCCCC(=O)O)C(=O)O)C(=O)NCC(=O)N[C@@H](Cc1c[nH]c2ccccc12)C(=O)N[C@@H](CCC(N)=O)C(=O)N(C)[C@H](CC(=O)O)C(=O)N[C@@H](Cc1ccccc1)C(N)=O [Example 41, 2-[2-[2-[[2-[2-[2-[[(4S)-4-Carboxy-4-(17-carboxyheptadecanoylamino)butanoyl]amino]ethoxy]ethoxy]acetyl]amino]ethoxy]ethoxy]acetyl-Glu-sTyr-Leu-Gly-Trp-Gln-DMeAsp-Phe-amide]			> 10 µM	> 1 µM
CCCC[C@H](NC(=O)[C@H](Cc1c[nH]c2ccccc12)NC(=O)CNC(=O)[C@H](CCCCN)NC(=O)[C@H](Cc1ccc(OS(=O)(=O)O)cc1)NC(=O)[C@@H](N)CC(=O)O)C(=O)N(C)[C@H](CC(=O)O)C(=O)N(C)[C@@H](Cc1ccccc1)C(N)=O [Example 67, Asp-sTyr-Lys-Gly-Trp-Nle-DMeAsp-MePhe-amide] (H-D[sY]KGW[Nle][dNMeD][NMeF]-NH2)			> 10 µM	> 1 µM
CCCC[C@H](NC(=O)[C@H](Cc1ccc(CS(=O)(=O)O)cc1)NC(=O)C[C@H](NC(=O)COCCOCCNC(=O)COCCOCCNC(=O)CC[C@H](NC(=O)CCCCCCCCCCCCCCCCC(=O)O)C(=O)O)C(=O)O)C(=O)NCC(=O)N[C@@H](Cc1c[nH]c2ccccc12)C(=O)N[C@@H](CCCC)C(=O)N(C)[C@H](CC(=O)O)C(=O)N(C)[C@@H](Cc1ccccc1)C(N)=O [Example 26, 2-[2-[2-[[2-[2-[2-[[(4S)-4-Carboxy-4-(17-carboxyheptadecanoylamino)butanoyl]amino]ethoxy]ethoxy]acetyl]amino]ethoxy]ethoxy]acetyl-bAsp-Phe(4-sulfomethyl)-Nle-Gly-Trp-Nle-DMeAsp-MePhe-amide] ({C18 diacid-γGlu-AEEA-AEEA-βAsp}-[Phe(4-CH2SO3H)][Nle]GW[Nle][dNMeD][NMeF]-NH2)			> 10 µM	> 1 µM
CCCC[C@H](NC(=O)[C@H](Cc1c[nH]c2ccccc12)NC(=O)CNC(=O)[C@H](CC(C)C)NC(=O)[C@H](Cc1ccc(CS(=O)(=O)O)cc1)NC(=O)[C@@H](N)CC(=O)O)C(=O)N(C)[C@H](CC(=O)O)C(=O)N(C)[C@@H](Cc1ccccc1)C(N)=O [Example 57, Asp-Phe(4-sulfomethyl)-Leu-Gly-Trp-Nle-DMeAsp-MePhe-amide] (H-D[Phe(4-CH2SO3H)]LGW[Nle][dNMeD][NMeF]-NH2)			> 10 µM	> 1 µM
CC(C)C[C@H](NC(=O)[C@H](Cc1ccc(OS(=O)(=O)O)cc1)NC(=O)[C@H](CC(=O)O)NC(=O)COCCOCCNC(=O)COCCOCCNC(=O)CC[C@H](NC(=O)CCCCCCCCCCCCCCCCC(=O)O)C(=O)O)C(=O)NCC(=O)N[C@@H](Cc1c[nH]c2ccccc12)C(=O)N1CCC[C@H]1C(=O)N(C)[C@H](CC(=O)O)C(=O)N(C)[C@@H](Cc1ccccc1)C(N)=O [Example 15, 2-[2-[2-[[2-[2-[2-[[(4S)-4-Carboxy-4-(17-carboxyheptadecanoylamino)butanoyl]amino]ethoxy]ethoxy]acetyl]amino]ethoxy]ethoxy]acetyl-Asp-sTyr-Leu-Gly-Trp-Pro-DMeAsp-MePhe-amide] ({C18 diacid-γGlu-AEEA-AEEA}-D[sY]LGWP[dNMeD][NMeF]-NH2)	1 µM	0.15 µM		

From patent US20170008928A1, “NOVEL PEPTIDES AND PEPTIDE DERIVATIVES AND USES THEREOF” (Novo Nordisk A/S, priority 2015, published 2017)
